pIC50: −log10 of the molar value.
molecular target: T1, FXR ligand binding domain (Homo sapiens, UniProt Q96RI1); assay: Radioligand binding assay (radioligand displacement, scintillation proximity); details: GST-FXR LBD fusion protein on SPA beads, radioligand 2,N-dicyclohexyl-2-[2-(2,4 dimethoxy-phenyl)-benzoimidazol-1-yl]-acetamide, RT 30 minutes
T1 sequence (Q96RI1 1-486): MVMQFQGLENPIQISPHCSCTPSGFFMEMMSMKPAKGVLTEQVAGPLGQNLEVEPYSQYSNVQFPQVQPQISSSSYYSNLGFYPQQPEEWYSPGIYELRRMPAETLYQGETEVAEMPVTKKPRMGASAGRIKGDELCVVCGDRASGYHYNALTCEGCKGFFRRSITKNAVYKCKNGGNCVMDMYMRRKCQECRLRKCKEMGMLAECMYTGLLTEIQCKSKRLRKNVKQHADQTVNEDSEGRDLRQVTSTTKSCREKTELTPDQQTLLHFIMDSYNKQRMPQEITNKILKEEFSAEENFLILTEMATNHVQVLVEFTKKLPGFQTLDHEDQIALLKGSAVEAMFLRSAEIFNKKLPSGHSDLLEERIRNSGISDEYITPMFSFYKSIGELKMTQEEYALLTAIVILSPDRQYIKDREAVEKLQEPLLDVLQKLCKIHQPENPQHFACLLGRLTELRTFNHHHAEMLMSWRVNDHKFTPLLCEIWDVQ
Experimental: The following tests were carried out in order to determine the activity of the compounds of formula I. Background information on the binding assay can be found in: Nichols J S et al. “Development of a scintillation proximity assay for peroxisome proliferator-activated receptor gamma ligand binding domain”, (1998) Anal. Biochem. 257: 112-119.
Bacterial and mammalian expression vectors were constructed to produce glutathione-s-transferase (GST) and Gal4 DNA binding domain (GAL) proteins fused to the ligand binding domain (LBD) of human FXR (aa 193-473). To accomplish this, the portions of the sequences encoding the FXR LBD were amplified by polymerase chain reaction (PCR) from a full-length clone by PCR and then subcloned into the plasmid vectors. The final clone was verified by DNA sequence analysis.
The induction, expression, and subsequent purification of GST-LBD fusion protein was performed in E. coli strain BL21(pLysS) cells by standard methods (Current Protocols in Molecular Biology, Wiley Press, ed. Ausubel et al).
Radioligand Binding Assay
Binding of test substances to the FXR ligand binding domain was assessed in a radioligand displacement assay. The assay was performed in a buffer consisting of 50 mM Hepes, pH 7.4, 10 mM NaCl, 5 mM MgCl2. For each reaction well in a 96-well plate, 40 nM of GST-FXR LBD fusion protein was bound to 10 μg glutathione ytrium silicate SPA beads (Pharmacia Amersham) in a final volume of 50 μl by shaking. A radioligand (eg. 40 nM) of 2,N-dicyclohexyl-2-[2-(2,4 dimethoxy-phenyl)-benzoimidazol-1-yl]-acetamide) was added, and the reaction incubated at RT for 30 minutes in the presence of test compounds followed by scintillation proximity counting. All binding assays were performed in 96-well plates and the amount of bound ligand was measured on a Packard TopCount using OptiPlates (Packard). Dose response curves were performed within a range of concentration from 6×10^−9 M to 2.5×10^−5 M.

Compound	pIC50
Cc1cc(C(=O)O)cc(C)c1OCC(c1c2ccccc2nn1-c1ccc(Cl)cc1)C1CCCCC1 (racemic) [Example 29, [rac]-4-{2-[2-(4-Chloro-phenyl)-2H-indazol-3-yl]-2-cyclohexyl-ethoxy}-3,5-dimethyl-benzoic acid]	7.59
O=C(O)c1ccc(OCC(c2c3ccccc3nn2-c2ccc(Cl)cc2)C2CCCCC2)nc1 (racemic) [Example 53, [rac]-6-{2-[2-(4-Chloro-phenyl)-2H-indazol-3-yl]-2-cyclohexyl-ethoxy}-nicotinic acid]	6.14
Fc1cc(-c2nnn[nH]2)ccc1OCC(c1c2c(nn1-c1ccc(Cl)cc1)CCCC2)C1CCCCC1 (racemic) [Example 38, [rac]-2-(4-Chloro-phenyl)-3-{1-cyclohexyl-2-[2-fluoro-4-(1H-tetrazol-5-yl)-phenoxy]-ethyl}-4,5,6,7-tetrahydro-2H-indazole]	6.96
Fc1cc2nn(-c3ccc(Cl)cc3)c(C(OCc3ccc(-c4nnn[nH]4)cc3F)C3CCCCC3)c2cc1F (racemic) [Example 42, [rac]-2-(4-Chloro-phenyl)-3-{cyclohexyl-[2-fluoro-4-(2H-tetrazol-5-yl)-benzyloxy]-methyl}-5,6-difluoro-2H-indazole]	7.85
Fc1cc2nn(-c3ccc(Cl)cc3)c(C(OCc3ccc(-c4nnn[nH]4)cc3)C3CCCCC3)c2cc1F (racemic) [Example 49, [rac]-2-(4-Chloro-phenyl)-3-{cyclohexyl-[4-(2H-tetrazol-5-yl)-benzyloxy]-methyl}-5,6-difluoro-2H-indazole]	8.40
O=C(O)c1ccc(NC(=O)C(O)(c2c3c(nn2-c2ccc(Cl)cc2)CCCC3)C2CCCCC2)c(F)c1 (centres unmarked) [Example 5, 4-{2-[2-(4-Chloro-phenyl)-4,5,6,7-tetrahydro-2H-indazol-3-yl]-2-cyclohexyl-2-hydroxy-acetylamino}-3-fluoro-benzoic acid]	5.69
O=C(NC1CCCCC1)C(c1c2ccccc2nn1-c1ccc(Cl)cc1)C1CCCCC1 (centres unmarked) [Example 4, 2-[2-(4-Chloro-phenyl)-2H-indazol-3-yl]-2,N-dicyclohexyl-acetamide]	5.86
Fc1cc2nn(-c3ccc(Cl)cc3)c(C(Oc3ccc(-c4nnn[nH]4)cc3F)C3CCCCC3)c2cc1F (racemic) [Example 50, [rac]-2-(4-Chloro-phenyl)-3-{cyclohexyl-[2-fluoro-4-(1H-tetrazol-5-yl)-phenoxy]-methyl}-5,6-difluoro-2H-indazole]	7.24
O=C(Nc1ccc(OC2(C(=O)O)CC2)cc1F)C(c1c2c(nn1-c1ccc(Cl)cc1)CCCC2)C1CCCCC1 (single isomer, unassigned; (+)) [Example 22, (+)-1-(4-{2-[2-(4-Chloro-phenyl)-4,5,6,7-tetrahydro-2H-indazol-3-yl]-2-cyclohexyl-acetylamino}-3-fluoro-phenoxy)-cyclopropanecarboxylic acid]	5.69
COc1cccc(C(C(=O)NC2CCCCC2)c2c3ccccc3nn2-c2ccccc2)c1 (centres unmarked) [Example 2, N-Cyclohexyl-2-(3-methoxy-phenyl)-2-(2-phenyl-2H-indazol-3-yl)-acetamide]	5.04
N#Cc1ccc(COC(c2c3c(nn2-c2ccc(Cl)cc2)CCCC3)C2CCCCC2)cc1 (racemic) [Example 44, [rac]-4-{[2-(4-Chloro-phenyl)-4,5,6,7-tetrahydro-2H-indazol-3-yl]-cyclohexyl-methoxymethyl}-benzonitrile]	5.25
O=C(Nc1ccc(-c2nnn[nH]2)cc1F)C(c1c2c(nn1-c1ccc(Cl)cc1)CCCC2)C1CCCCC1 (racemic) [Example 58, [rac]-2-[2-(4-Chloro-phenyl)-4,5,6,7-tetrahydro-2H-indazol-3-yl]-2-cyclohexyl-N-[2-fluoro-4-(1H-tetrazol-5-yl)-phenyl]-acetamide]	7.28
O=C(O)c1ccc(NC(=O)C(c2c3c(nn2-c2ccc(Cl)cc2)CCCC3)C2CCCCC2)c(C(F)(F)F)c1 (racemic) [Example 20, [rac]-4-{2-[2-(4-Chloro-phenyl)-4,5,6,7-tetrahydro-2H-indazol-3-yl]-2-cyclohexyl-acetylamino}-3-trifluoromethyl-benzoic acid]	6.48

More lines, in order of rising pIC50, values ahead:

pIC50	Compound
5.13	O=C(NC1CCCCC1)C(c1ccccc1)c1c2ccccc2nn1-c1ccccc1 (centres unmarked) [Example 3, N-Cyclohexyl-2-phenyl-2-(2-phenyl-2H-indazol-3-Y1)-acetamide]
5.14	O=C(O)c1ccc(NC(=O)C(c2c3ccccc3nn2-c2ccc(Cl)cc2)C2CCCCC2)cc1 (centres unmarked) [Example 12, 4-{2-[2-(4-Chloro-phenyl)-2H-indazol-3-yl]-2-cyclohexyl-acetylamino}-benzoic acid]
5.67	Cc1cc(C(=O)O)cc(C)c1OC(c1c2cc(F)c(F)cc2nn1-c1ccc(Cl)cc1)C1CCCCC1 (racemic) [Example 34, [rac]-4-{[2-(4-Chloro-phenyl)-5,6-difluoro-2H-indazol-3-yl]-cyclohexyl-methoxy}-3,5-dimethyl-benzoic acid]
5.72	O=C(NC1CCCCC1)C(c1c2ccccc2nn1-c1ccccc1)C1CCCCC1 (centres unmarked) [Example 1, 2,N-Dicyclohexyl-2-(2-phenyl-2H-indazol-3-yl)-acetamide]
6.70	O=C(O)c1ccc(SCC(c2c3c(nn2-c2ccc(Cl)cc2)CCCC3)C2CCCCC2)cc1 (racemic) [Example 63, [rac]-4-{2-[2-(4-Chloro-phenyl)-4,5,6,7-tetrahydro-2H-indazol-3-yl]-2-cyclohexyl-ethylsulfanyl}-benzoic acid]
6.81	O=C(NC1CCCCC1)C(c1c2c(nn1-c1ccc(Cl)cc1)CCCC2)C1CCCCC1 (centres unmarked) [Example 6, 2-[2-(4-Chloro-phenyl)-4,5,6,7-tetrahydro-2H-indazol-3-yl]-2,N-dicyclohexyl-acetamide]
6.89	O=C(O)CCc1ccc(NC(=O)C(c2c3c(nn2-c2ccc(Cl)cc2)CCCC3)C2CCCCC2)c(F)c1 (racemic) [Example 61, [rac]-3-(4-{2-[2-(4-Chloro-phenyl)-4,5,6,7-tetrahydro-2H-indazol-3-yl]-2-cyclohexyl-acetylamino}-3-fluoro-phenyl)-propionic acid]
7.00	Fc1cc(-c2nnn[nH]2)ccc1OCC(c1c2ccccc2nn1-c1ccc(Cl)cc1)C1CCCCC1 (racemic) [Example 31, [rac]-2-(4-Chloro-phenyl)-3-{1-cyclohexyl-2-[2-fluoro-4-(2H-tetrazol-5-yl)-phenoxy]-ethyl}-2H-indazole]
7.10	O=C(O)c1ccc(NC(=O)C(c2c3c(nn2-c2ccc(Cl)cc2)CCCC3)C2CCCCC2)c(Cl)c1 (racemic) [Example 62, [rac]-3-Chloro-4-{2-[2-(4-chloro-phenyl)-4,5,6,7-tetrahydro-2H-indazol-3-yl]-2-cyclohexyl-acetylamino}-benzoic acid]
7.35	O=C(Nc1ccc(-c2nnn[nH]2)cc1)C(c1c2c(nn1-c1ccc(Cl)cc1)CCCC2)C1CCCCC1 (racemic) [Example 57, [rac]-2-[2-(4-Chloro-phenyl)-4,5,6,7-tetrahydro-2H-indazol-3-yl]-2-cyclohexyl-N[4-(1H-tetrazol-5-yl)-phenyl]-acetamide]
7.68	O=C(Nc1ccc(OC2(C(=O)O)CC2)cc1F)[C@H](c1c2c(nn1-c1ccc(Cl)cc1)CCCC2)C1CCCCC1 [Example 23, (−)-1-(4-{2-[2-(4-Chloro-phenyl)-4,5,6,7-tetrahydro-2H-indazol-3-yl]-2-cyclohexyl-acetylamino}-3-fluoro-phenoxy)-cyclopropanecarboxylic acid]
8.40	Clc1ccc(-n2nc3c(c2C(CNc2ccc(-c4nnn[nH]4)cc2)C2CCCCC2)CCCC3)cc1 (racemic) [Example 65, [rac]-{2-[2-(4-Chloro-phenyl)-4,5,6,7-tetrahydro-2H-indazol-3-yl]-2-cyclohexyl-ethyl}-[4-(1H-tetrazol-5-yl)-phenyl]-amine]
8.40	Cc1cc(-c2nnn[nH]2)cc(C)c1OCC(c1c2ccccc2nn1-c1ccc(Cl)cc1)C1CCCCC1 (racemic) [Example 52, [rac]-2-(4-Chloro-phenyl)-3-{1-cyclohexyl-2-[2,6-dimethyl-4-(2H-tetrazol-5-yl)-phenoxy]-ethyl}-2H-indazole]
